Source: patent US20050197366A1, “Antimicrobial composition containing N-(n-butyl)-1,2-benzisothiazolin-3-one” (priority 2004, published 2005)
Where “and” joins values, the source holds several entries; their conditions need not be identical. Equal entries are not always repeated. Where two headings read alike, the source gives them in different places. Blank lines part the entries; values can stand above or below the molecule they belong to.

How the values were obtained:
Format in all cases: cell-based
[1] = system: Klebsiella pneumoniae (ATCC#13583); test: Microtiter plate synergy test (MIC, Kull synergy index), bacteria, Trypticase Soy Broth; conditions: for MIC: Klebsiella pneumoniae, read-out: Alone ppm (MIC of compound acting alone)
Text: (§1) One measure of synergism is the industrially accepted method described by Kull, F. C.; Eisman, P. C.; Sylwestrowicz, H. D. and Mayer, R. L., in Applied Microbiology 9:538-541 (1961), using the ratio determined by the formula: Qa/QA+Qb/QB=Synergy Index (“SI”) wherein: • QA=concentration of compound A (first component) in ppm, acting alone, which produced an end point (MIC of Compound A). • Qa=concentration of compound A in ppm, in the mixture, which produced an end point. • QB=concentration of compound B (second component) in ppm, acting alone, which produced an end point (MIC of Compound B). • Qb=concentration of compound B in ppm, in the mixture, which produced an end point.
(§2) When the sum of Qa/QA and Qb/QB is greater than one, antagonism is indicated. […] The lower the SI, the greater the synergy shown by that particular mixture. The minimum inhibitory concentration (MIC) of an antimicrobial compound is the lowest concentration tested under a specific set of conditions that prevents the growth of added microorganisms.
(§3) Synergy tests were conducted using standard microtiter plate assays (12 columns, 1-12×8 rows, A-H) with media designed for optimal growth of the test microorganism. Full-strength nutrient medium, Trypticase Soy Broth, TSB, for bacteria, or Potato Dextrose Broth, PDB, for fungi, was used for testing. Growth medium (160 μL) was dispensed into columns 2-6 and 8-12 of the plate. A total of 40 plates were made with each growth medium. Stock solutions of N-(n-butyl)-1,2-benzisothiazolin-3-one were made from DENSIL DG 20 (20% active ingredient (AI), n-BBIT, in propylene glycol, obtained from Avecia Inc.) at the following concentrations based on total product weight: 5000 ppm (0.2 g DENSIL DG 20 in 40 g growth medium), 4000 ppm, 3500 ppm, 3000 ppm, 2500 ppm, 2000 ppm, 1500 ppm, 1000 ppm and 900 ppm. Isothiazolone stock solutions were made as follows. KATHON LX (1.97% active, 3:1 CMI/MI mixture): active ingredient concentrations at 144 ppm, 36 ppm, 10 ppm, 5 ppm and 1 ppm. ROZONE 2000 (20% active, DCOIT): active ingredient concentrations at 144 ppm, 36 ppm, 10 ppm, 5 ppm and 1 ppm. ROCIMA 550 (9.5% active, MI): active ingredient concentrations at 4800 ppm, 2400 ppm, 900 ppm, 360 ppm and 180 ppm. DENSIL DG 20 stock solution was dispensed in each well of columns 1 and 7 of a microtiter plate, as described below:
(§4) 5000 ppm of stock solution was tested against Ps. aeruginosa in 1A, 7A. The 900 ppm stock was not tested against this organism. A 40 μL aliquot was transferred from each well in column 1 to column 2 and serially diluted to column 5; the aliquots from column 5 was discarded. Column 6 was the control. The same procedure was repeated from column 7 to column 11, and the aliquots from column 11 discarded. At the end of this procedure, each well should contain 160 μL of solution.
(§5) The isothiazolone stock solutions were added to various columns so that each well contained the desired concentration of the isothiazolone and the DENSIL DG20. The DENSIL DG20 alone as well as the isothiazolone alone were included as controls. An example of the combination of 11 ppm KATHON LX 1.5% (on an active ingredient basis) with DENSIL DG20 is shown below:
(§6) DENSIL DG20 alone (columns 1-5); untreated control (column 6); combination evaluations (columns 7-11); KATHON LX 1.5% control (column 12). Inoculum (10 μL) was dispensed into each well from column 1-12. […] The MIC of each biocide was determined from the plates, and then SI was determined.
(§7) The following Tables summarize data for combinations of n-BBIT with other isothiazolones (ITA), along with their synergy index (SI) and the ratio of n-BBIT:ITA. All amounts of n-BBIT and ITA are reported as ppm of active ingredient. Results for testing against various organisms are grouped with results against fungi (F) reported together, and then results against bacteria (B).
(§8) Typical contact time for bacteria is 24-48 hours and 3-7 days for fungi. […]

[2] = system: Staphylococcus aureus (ATCC#6538); test: as above; conditions: S. aureus, ppm active ingredient; for MIC: Staphylococcus aureus, ATCC6538, read-out: Alone ppm (MIC of compound acting alone)
Text: as §1, §2, §3, §4, §5, §6, §7, §8

[3] = system: Fusarium moniliforme (ATCC#58929); test: Microtiter plate synergy test (MIC, Kull synergy index), fungi, Potato Dextrose Broth; conditions: for MIC: Fusarium verticillioides, read-out: Alone ppm (MIC of compound acting alone)
Text: as §1, §2, §3, §4, §5, §6, §7, §8

[4] = system: Proteus mirabilis (ATCC#unknown); test: Microtiter plate synergy test (MIC, Kull synergy index), bacteria, Trypticase Soy Broth; conditions: P. mirabilis, contact time 48 hr, ppm active ingredient
Text: as §1, §2, §3
(§9) 5000 ppm of stock solution was tested against Ps. aeruginosa in 1A, 7A. The 900 ppm stock was not tested against this organism. […]
(§10) DENSIL DG20 alone (columns 1-5); untreated control (column 6); combination evaluations (columns 7-11); KATHON LX 1.5% control (column 12). […] The MIC of each biocide was determined from the plates, and then SI was determined. […]

[5] = system: Pseudomonas aeruginosa (ATCC#15442); test: as above; conditions: for MIC: Pseudomonas aeruginosa, read-out: Alone ppm (MIC of compound acting alone); for Alone ppm (MIC of compound acting alone): Ps. aeruginosa, ppm active ingredient
Text: as §1, §2, §3, §4, §5, §6, §7, §8

[6] = system: Aspergillus niger (ATCC#16404); test: Microtiter plate synergy test (MIC, Kull synergy index), fungi, Potato Dextrose Broth; conditions: for Alone ppm (MIC of compound acting alone): A. niger, ppm active ingredient
Text: as §1, §2, §3, §4, §5, §6, §7, §8

[7] = system: Candida albicans (ATCC#10231); test: as above
Text: as §1, §2, §3, §4, §5
(§11) DENSIL DG20 alone (columns 1-5); untreated control (column 6); combination evaluations (columns 7-11); KATHON LX 1.5% control (column 12). Inoculum (10 μL) was dispensed into each well from column 1-12. The plates were incubated (bacterial plates at 48 hrs., 30° C.; fungal plates at 7 days, 25° C.). The MIC of each biocide was determined from the plates, and then SI was determined.
as §7, with “(B). […]” for “(B).”

[8] = system: Gliocladium viridie (Tricoderma viridie)(isolate); test: as above; conditions: for MIC: read-out: Alone ppm (MIC of compound acting alone); for Alone ppm (MIC of compound acting alone): G. viridie, ppm active ingredient
Text: as §1, §2, §3, §4, §5, §11
as §7, with “(B). […]” for “(B).”

[9] = system: Escherichia coli (ATCC#8739); test: Microtiter plate synergy test (MIC, Kull synergy index), bacteria, Trypticase Soy Broth; conditions: E. coli, ppm active ingredient
Text: as §1, §2, §3, §9, §10

MIC ([1]; ATCC13583, K. pneumoniae, contact time 48 hr, ppm active ingredient): 11 µg/mL | MIC ([2]; contact time 24 hr): 6 µg/mL | MIC ([2]; contact time 48 hr): 9 µg/mL | MIC ([3]; ATCC58929, 72 h, F. moniliforme, contact time 3 days, ppm active ingredient): 0.28 µg/mL | MIC ([3]; ATCC58929, 168 h, F. moniliforme, contact time 7 days, ppm active ingredient): 1 µg/mL | MIC ([4]; Proteus mirabilis, read-out: Alone ppm (MIC of compound acting alone)): 5 µg/mL
Structure (SMILES): CCCCCCCCn1sc(Cl)c(Cl)c1=O [DCOIT, 4,5-dichloro-2-n-octyl-4-isothiazolin-3-one]

Structure (SMILES): Cn1sccc1=O [MI, 2-methyl-4-isothiazolin-3-one]
MIC ([1]; ATCC13583, 24 h): 25 µg/mL | MIC ([5]; ATCC15442, 24 h): 20 µg/mL | MIC ([5]; ATCC15442, 48 h): 25 µg/mL | MIC ([6]; Aspergillus niger, ATCC16404, 168 h, read-out: Alone ppm (MIC of compound acting alone)): 200 µg/mL | MIC ([3]; ATCC58929, 72 h): 200 µg/mL | MIC ([3]; ATCC58929, 168 h): 200 µg/mL | MIC ([7]; Candida albicans, ATCC10231, 168 h, read-out: Alone ppm (MIC of compound acting alone)): 25 µg/mL | MIC ([8]; 72 h): 107 µg/mL | MIC ([8]; 168 h): 133 µg/mL

Structure (SMILES): CCCCn1sc2ccccc2c1=O [n-BBIT, N-(n-butyl)-1,2-benzisothiazolin-3-one]
Alone ppm (MIC of compound acting alone) ([1]; K. pneumoniae, contact time 24 hr, ppm active ingredient): 267 ppm | Alone ppm (MIC of compound acting alone) ([1]; K. pneumoniae, contact time 48 hr, ppm active ingredient): 267 ppm | Alone ppm (MIC of compound acting alone) ([5]; contact time 24 hr): 711 ppm | Alone ppm (MIC of compound acting alone) ([5]; contact time 48 hr): 711 ppm | Alone ppm (MIC of compound acting alone) ([2]; contact time 24 hr): 36 ppm | Alone ppm (MIC of compound acting alone) ([2]; contact time 48 hr): 53 ppm | Alone ppm (MIC of compound acting alone) ([6]; contact time 3 days): 28 ppm | Alone ppm (MIC of compound acting alone) ([6]; contact time 7 days): 53 ppm | Alone ppm (MIC of compound acting alone) ([3]; F. moniliforme, contact time 3 days, ppm active ingredient): 267 ppm and 444 ppm | Alone ppm (MIC of compound acting alone) ([3]; F. moniliforme, contact time 7 days, ppm active ingredient): 533 ppm and 356 ppm and 267 ppm | Alone ppm (MIC of compound acting alone) ([9]; contact time 24 hr): 356 ppm | Alone ppm (MIC of compound acting alone) ([9]; contact time 48 hr): 533 ppm | Alone ppm (MIC of compound acting alone) [4]: 18 ppm | Alone ppm (MIC of compound acting alone) ([7]; C. albicans, contact time 7 days, ppm active ingredient): 124 ppm | Alone ppm (MIC of compound acting alone) ([8]; contact time 3 days): 711 ppm | Alone ppm (MIC of compound acting alone) ([8]; contact time 7 days): >711 ppm
